Laboratory results published in ChEMBL document CHEMBL3639372, “Disubstituted azepan orexin receptor antagonists” (2014).

target: T1, Orexin/Hypocretin receptor type 1 (Rattus norvegicus, UniProt P56718); assay: Radioligand Binding Assay: Compound potency can be assessed by a radioligand binding assay (described in Bergman et. al. Bioorg. Med. Chem. Lett. 2008, 18, 1425-1430) in which the inhibition constant (Ki) is determined in membranes prepared from CHO cells expressing either the orexin-1 (OX1) or orexin-2 (OX2) receptor.; type: cell membranes
T1 sequence (P56718 whole entry): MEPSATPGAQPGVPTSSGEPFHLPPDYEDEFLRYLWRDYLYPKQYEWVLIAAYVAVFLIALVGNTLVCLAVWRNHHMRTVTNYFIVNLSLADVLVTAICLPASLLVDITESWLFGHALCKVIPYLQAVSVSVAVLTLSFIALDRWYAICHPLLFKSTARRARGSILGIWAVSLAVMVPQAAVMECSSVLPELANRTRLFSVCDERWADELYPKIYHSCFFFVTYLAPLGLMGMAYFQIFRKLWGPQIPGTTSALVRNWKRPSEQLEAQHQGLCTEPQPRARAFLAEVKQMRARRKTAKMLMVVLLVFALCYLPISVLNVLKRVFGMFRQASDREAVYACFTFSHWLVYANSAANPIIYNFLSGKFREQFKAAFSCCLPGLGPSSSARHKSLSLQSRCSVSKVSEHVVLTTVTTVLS

| Structure (SMILES) | Ki |
| --- | --- |
| Cc1ccc(-n2nccn2)c(C(=O)N2CCCCC(COc3ccc(F)c(C)c3)C2)c1 (centres undefined) | 0.015 µM |
| Cc1ccc(-n2nccn2)c(C(=O)N2CC(COc3ccc(F)c(C)c3)COCC2C)c1 (centres undefined) | 0.0051 µM |
| Cc1cc(OCC2CCCC(C)N(C(=O)c3ccccc3-n3nccn3)C2)ccc1F (centres undefined) | 0.05 µM |
| Cc1ccc(-c2ncccn2)c(C(=O)N2CC(COc3ccc(F)cn3)CCCC2C)c1 (centres undefined) | 0.31 µM |
| Cc1cc(OCC2COCC(C)N(C(=O)c3ccccc3-n3nccn3)C2)ccc1F (centres undefined) | 0.039 µM |
| Cc1ccc(-n2nccn2)c(C(=O)N2CC(COc3ccc(F)cn3)CCCC2C)c1 (centres undefined) | 0.15 µM |
| Cc1ccc(-c2nccs2)c(C(=O)N2CC(COc3ccc(F)cn3)CCCC2C)c1 (centres undefined) | 0.073 µM |
| Cc1ccc(-c2ncccn2)c(C(=O)N2CC(COc3ccc(F)c(C)c3)CCCC2C)c1 (centres undefined) | 0.042 µM |
| Cc1ccc(-n2nccn2)c(C(=O)N2CC(COc3ccc(F)c(C)c3)CCCC2C)c1 (centres undefined) | 0.0087 µM |
